In patent US20050222225A1, “Use of compounds for increasing spermatozoa motility” (APPLIED RESEARCH SYSTEMS ARS HOLDING NV, priority 2002, published 2005):

Key:
[1] = tested on: spermatozoa; assay: Sperm cell parameters by computer aided sperm analysis (CASA); assay type: cell-based, human; settings: 10 μM; sperm samples from oligo-asthenospermic subjects; vs control sample
Source text: In the experiments the following examples are based on, standard methods of in vitro fertilization have been used. With regard to the details of these methods, reference is made to the “WHO manual” (WHO laboratory manual for the examination of human semen and sperm-cervical mucus interactions, 4th edition, Cambridge University Press 1999). In particular, the direct swim-up method can be taken from pp. 104 to 106 of this manual.
b) Effect of Example 1 Compound on Further Sperm Cell Parameters:
These parameters are determined by computer aided sperm analysis (CASA) in sperm samples from different oligo-asthenospermic subjects.

[2] = tested on: C5a-mediated AKT phosphorylation in Raw 264-7 macrophages; assay: Cell based ELISA: Akt/PKB phosphorylation in macrophages after stimulation with C5a; settings: Mus musculus, 50 nM C5a; for inhibition at 10 µM: RAW264.7, compound at 10 μM; for inhibition at 1 µM: RAW264.7, compound at 1 μM
Method: b) Cell Based ELISA to Monitor PI3K Inhibition: Measurement of Akt/PKB phosphorylation in macrophages after stimulation with C5a: Raw 264: Raw 264-7 macrophages (cultured in DMEM-F12 medium containing 10% Fetal Calf serum and antibiotics) are plated at 20'000 cells/well in a 96 MTP 24 h before cell stimulation. Previous to the stimulation with 50 nM of Complement 5a (C5a; which is a well known chemokine which stimulates the used cells) during 5 minutes, Cells are serum starved for 2 h, and pretreated with inhibitors for 20 minutes. After stimulation cells are fixed in 4% formaldehyde for 20 minutes and washed 3 times in PBS containing 1% Triton X-100 (PBS/Triton). Endogenous peroxidase is blocked by a 20 minutes incubation in 0.6% H2O2 and 0.1% Sodium Azide in PBS/Triton and washed 3 times in PBS/Triton. Cells are then blocked by 60 minutes incubation with 10% fetal calf serum in PBS/Triton. Next, phosphorylated Akt/PKB is detected by an overnight incubation at 4° C. with first antibody (anti phospho Serine 473 Akt IHC, Cell Signaling) diluted 800-fold in PBS/Triton, containing 5% bovine serum albumin (BSA). After 3 washes in PBS/Triton, cells are incubated for 60 minutes with a peroxidase conjugated goat-anti-rabbit antibody (1/400 dilution in PBS/Triton, containing 5% BSA), washed 3 times in PBS/Triton, and 2 times in PBS and further incubated in 100 μl of substrate reagent solution (R&D) for 20 minutes. The reaction is stopped by addition of 50 μl of 1 M H2SO4 and absorbance is read at 450 nm. The values indicated reflect the percentage of inhibition of AKT phoshorylation as compared to basal level. Said values show a clear effect of the azolidinone-vinyl fused-benzene compounds on the activation of AKT phosphorylation in macrophages.

[3] = target: Human recombinant GST-PI3Kγ (Homo sapiens, UniProt P48736); assay: High Throughput PI3K Lipid Kinase Assay (scintillation proximity assay, neomycin-coated beads); assay type: biochemical
Sequence of Human recombinant GST-PI3Kγ (P48736 whole entry): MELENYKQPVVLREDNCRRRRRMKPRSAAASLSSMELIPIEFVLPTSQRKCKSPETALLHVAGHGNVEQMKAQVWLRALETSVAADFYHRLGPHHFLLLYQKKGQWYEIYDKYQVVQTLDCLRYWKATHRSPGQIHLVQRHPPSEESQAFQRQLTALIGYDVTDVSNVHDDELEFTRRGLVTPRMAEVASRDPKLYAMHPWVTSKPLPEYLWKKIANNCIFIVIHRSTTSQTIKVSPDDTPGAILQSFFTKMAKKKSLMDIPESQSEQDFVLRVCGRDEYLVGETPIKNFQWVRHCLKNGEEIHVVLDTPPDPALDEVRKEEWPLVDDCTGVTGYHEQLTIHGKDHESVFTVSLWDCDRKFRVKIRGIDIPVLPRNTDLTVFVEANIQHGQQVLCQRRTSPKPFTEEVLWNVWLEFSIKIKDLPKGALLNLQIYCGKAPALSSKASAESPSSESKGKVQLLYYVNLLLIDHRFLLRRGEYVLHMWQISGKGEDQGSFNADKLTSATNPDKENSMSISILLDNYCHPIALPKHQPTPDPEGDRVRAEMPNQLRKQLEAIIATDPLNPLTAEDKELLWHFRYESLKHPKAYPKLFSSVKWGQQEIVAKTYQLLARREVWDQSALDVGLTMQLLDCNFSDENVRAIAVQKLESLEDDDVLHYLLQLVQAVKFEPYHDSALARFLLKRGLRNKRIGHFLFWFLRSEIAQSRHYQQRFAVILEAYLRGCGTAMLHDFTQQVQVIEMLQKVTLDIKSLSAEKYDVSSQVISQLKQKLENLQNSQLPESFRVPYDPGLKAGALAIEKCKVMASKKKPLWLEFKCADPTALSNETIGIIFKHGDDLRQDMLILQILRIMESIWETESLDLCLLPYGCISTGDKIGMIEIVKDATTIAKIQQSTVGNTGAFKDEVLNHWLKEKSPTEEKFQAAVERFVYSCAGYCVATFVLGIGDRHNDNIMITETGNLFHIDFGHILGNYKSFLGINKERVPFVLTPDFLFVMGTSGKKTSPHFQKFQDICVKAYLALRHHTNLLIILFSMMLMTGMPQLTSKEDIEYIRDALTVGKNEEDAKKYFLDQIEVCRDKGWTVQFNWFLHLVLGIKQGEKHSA
Method: A. a) High Throughput PI3K Lipid Kinase Assay (Binding Assay):
The assay combines the scintillation proximity assay technology (SPA, Amersham) with the capacity of neomycin (a polycationic antibiotic) to bind phospholipids with high affinity and specificity. The Scintillation Proximity Assay is based on the properties of weakly emitting isotopes (such as ^3H, ^125I, ^33P). Coating SPA beads with neomycin allows the detection of phosphorylated lipid substrates after incubation with recombinant PI3K and radioactive ATP in the same well, by capturing the radioactive phospholipids to the SPA beads through their specific binding to neomycin.
To a 384 wells MTP containing 5 μl of the test compound of formula (I) (solubilized in 6% DMSO; to yield a concentration of 100, 30, 10, 3, 1, 0.3, 0.1, 0.03, 0.01, 0.001 μM of the test compound), the following assay components are added. 1) 5 μl (58 ng) of Human recombinant GST-PI3Kγ (in Hepes 40 mM, pH 7.4, DTT 1 mM and ethylenglycol 5%) 2) 10 μl of lipid micelles and 3) 10 μl of Kinase buffer ([^33P]ATP 45 μM/60 nCi, MgCl2 30 mM, DTT 1 mM, β-Glycerophosphate 1 mM, Na3VO4 100 μM, Na Cholate 0.3%, in Hepes 40 mM, pH 7.4). […] After precipitation of the neomycin-coated PVT SPA beads for 5 minutes at 1500×g, radioactive PtdIns(3)P is quantified by scintillation counting in a Wallac MicroBeta™ plate counter. […]

SMILES | inhibition at 10 µM [2] | inhibition at 1 µM [2] | other results
O=C1NC(=O)/C(=C/c2ccc3c(c2)OCO3)S1 [Example 1, 5-(1,3-benzodioxol-5-ylmethylene)-1,3-thiazolidine-2,4-dione] | ~100% | – | average path velocity (VAP) [1]: increased in a statistically significant manner; hyper-activated sperm fraction (HA) [1]: increased in a statistically significant manner; percentage curvilinear velocity (VCL) [1]: increased in a statistically significant manner; straight-line velocity (VSL) [1]: increased in a statistically significant manner
N=C1NC(=O)/C(=C/c2ccc3ncnc(N4CCCCC4)c3c2)S1 [Example 41, 2-Imino-5-(4-piperidine-quinazolin-6-ylmethylene)-thiazolidin-4-one] | – | – | IC50 [3]: < 1000 nM
O=C1NC(=O)/C(=C/c2ccc3occ(/C=C/C(=O)N4CCCCC4)c3c2)S1 [Example 73, 5-[3-(3-Oxo-3-piperidin-1-yl-propenyl)-benzofuran-5-ylmethylene]-thiazolidine-2,4-dione] | – | 95% | –
CN(C)c1ncnc2ccc(/C=C3\SC(=O)NC3=O)cc12 [Example 17, 5-(4-Dimethylamino-quinazolin-6-ylmethylene)-thiazolidine-2,4-dione] | – | 95% | –
N=C1NC(=O)/C(=C/c2ccc3nccnc3c2)S1 [Example 66, 2-Imino-5-quinoxalin-6-ylmethylene-thiazolidin-4-one] | ~100% | – | –
O=C1NC(=O)/C(=C/c2ccc3nsnc3c2)S1 [Example 107, 5-Benzo[1,2,5]thiadiazol-5-ylmethylene-thiazolidine-2,4-ione] | ~100% | – | IC50 [3]: < 1000 nM
O=C1NC(=O)C(=Cc2ccc3ncnc(N4CCCCC4)c3c2)S1 [Example 19, 5-[(4-piperidin-1-ylquinazolin-6-yl)methylene]-1,3-thiazolidine-2,4-dione] | ~100% | 95% | –
